Counter-ions that a name gives are not always drawn.
What was measured:
pressor response to AII = experiment: Inhibition of the pressor response to AII in conscious dogs; format: in vivo, dog
Procedure: (§1) The hypotensive effects of 2-butyl-4-chloro-1-[2'-(1H-tetrazol-5-yl)biphenyl-4-yl)methyl]-5-hydroxymethylimidazole sodium salt were compared before and after furosemide administration to conscious dogs. […] Plasma renin activity (PRA) in these animals was 1.5±0.5 ng AI/ml/hr. Four days later, furosemide was given to three of these dogs at 10 mg/kg im at 18 and 2 hours before the experiment and increased PRA to 19.9±7.2 ng AI/ml/hr. […] Thus a combined therapy of these two classes of drugs will be likely to increase the response rate to therapy among hypertensive patients.

conscious dogs = experiment: Hypotensive effects in conscious dogs before and after furosemide; format: in vivo, dog
Procedure: as §1

[1] = target: AII receptor (rat adrenal cortical microsomes); experiment: Angiotensin II receptor binding (displacement of 3H-AII); settings: 2 nM 3H-AII, 1 hour at room temperature
Procedure: The hormone angiotensin II (AII) produces numerous biological responses (e.g. vasoconstriction) through stimulation of its receptors on cell membranes. […] The reaction mixture contained rat adrenal cortical microsomes (source of AII receptor) in Tris buffer and 2 nM of ^3 H-AII with or without potential AII antagonist. This mixture was incubated for 1 hour at room temperature and the reaction was subsequently terminated by rapid filtraton and rinsing through glass micro-fibre filter. Receptor-bound ^3 H-AII trapped in filter was quantitiated by scintillation counting.

[2] = system: awake rats made hypertensive by ligation of the left renal artery; experiment: Antihypertensive effects in renal hypertensive rats; format: in vivo, rat
Procedure: This procedure increases blood pressure by increasing renin production with consequent elevation of AII levels. Compounds are administered orally at 100 mg/kg and/or intravenously via a cannula in the jugular vein at 10 mg/kg. Arterial blood pressure is continuously measured directly through a carotid artery cannula and recorded using a pressure transducer and a polygraph. Blood pressure levels after treatment are compared to pretreatment levels to determine the antihypertensive effects of the compounds (See Table 1).
Compounds listed in Table 2 were tested in the same manner as described for Table 1, except that in the test for antihypertensive effects in renal hypertensive rats, the compounds were administered orally at 30 mg/kg and intravenously at 3 mg/kg.

[3] = system: patients with severe hypertension; experiment: Blood pressure and heart rate (oscillometric); format: in vivo, human; settings: after Losartan
Procedure: (§2) At the time of the study only a three day wash-out period was allowed due to the severity of their hypertension.
(§3) A euglycemic glucose clamp procedure was performed three days after the initial screening, and after withdrawl from previous antihypertensive medications.
(§4) Fasting glucose was determined enzymatically, using a glucose dehydrogenase method and a Cobas Bio analyzer (Roche, Basel Switzerland). A Reflolux II (Mannheim Boehringer GmbH, Mannheim, Germany) was utilized to measure glucose concentration during the glucose clamp procedure (within run coefficient of variation <3% in our laboratory). Fructosamine was determined by calorimetric method. Insulin was measured by radioimmunoassay technique, using a specific antibody from Linco Research Inc. (St. Louis, Mo., USA). The lower limit of detection is 5 mU/l cross reactivity with proinsulin less than 1% and intra-assay coefficient of variation below 9% at all levels. Plasma catecholamines from specialized venous blood were measured by the radioenzymatic technique of Peuler Johnson as detailed in Kjelsen et al., Scan. J. Clin. Invest. 1993:42:217-23. Blood pressure and heart rate were measured oscillometrically with an Omega 1000™ Adult/Pediatric Blood Pressure Recorder (INVIVO Research Laboratories Inc., Tulsa Okla., USA).

[4] = system: patients with severe hypertension; experiment: Fasting glucose, fructosamine and insulin; format: in vivo, human; settings: after Losartan
Procedure: as §2, §3, §4

[5] = system: patients with severe hypertension; experiment: Euglycemic hyperinsulinemic glucose clamp (insulin sensitivity); format: in vivo, human
Procedure: as §2, §3
The euglycemic hyperinsulinemic glucose "clamp" was performed using a modification of the method described by DeFronzo, et al. Am. J. Physiol. 1979:237: E214-23, as previously detailed by Moan, et al., Metabolism, in press. Insulin was infused at a fixed rate of 1 mU/kg/min. […] This index is a ratio of the glucose disposal rate to the mean level of insulin during the last 20 minutes of the glucose clamp multiplied by 100, and is given arbitrary units. Blood for baseline adrenaline and noradrenaline were sampled in duplicate and the results averaged.

[6] = system: patients with severe hypertension; experiment: Baseline plasma catecholamines (radioenzymatic); format: in vivo, human
Procedure: as §2, §3
The euglycemic hyperinsulinemic glucose "clamp" was performed using a modification of the method described by DeFronzo, et al. Am. J. Physiol. 1979:237: E214-23, as previously detailed by Moan, et al., Metabolism, in press. Insulin was infused at a fixed rate of 1 mU/kg/min. This technique for measuring the glucose disposal rate has a day-to-day coefficient of less than 5% percent. […] The steady state levels of insulin varied from one person to another, and as a result the insulin sensitivity index was also calculated. This index is a ratio of the glucose disposal rate to the mean level of insulin during the last 20 minutes of the glucose clamp multiplied by 100, and is given arbitrary units. Blood for baseline adrenaline and noradrenaline were sampled in duplicate and the results averaged.
as §4

arterial pressure = settings: cited from earlier work
[7] = system: effects of AII on the blood pressure of pithed rats; settings: cited from earlier work
[8] = system: renal vasoconstrictor effect of NSAIDs; settings: cited from earlier work
Plasma renin activity = Plasma renin activity (PRA) in conscious dogs; format: in vivo, dog; settings: furosemide 10 mg/kg im at 18 and 2 hours before; three dogs; before furosemide 1.5±0.5
Procedure: as §1

CCCCc1nc(Cl)c(CO)n1Cc1ccc(-c2ccccc2-c2nn[nH]n2)cc1 [2-butyl-4-chloro-1-[2'-(1H-tetrazol-5-yl)biphenyl-4-yl)methyl]-5-hydroxymethylimidazole sodium salt]
inhibition of pressor response to AII (pressor response to AII; after furosemide, cumulative iv, same doses): inhibited the pressor response to AII at the two higher doses | inhibition of pressor response to AII (pressor response to AII; before furosemide, AII 0.1 μg/kg iv, 10 min post dose, cumulative iv 0.3 to 3 mg/kg): effective in inhibiting the pressor response to AII | blood pressure lowering (conscious dogs; conscious dogs after furosemide 10 mg/kg im at 18 and 2 hours before, cumulative iv, same doses): significant decrease in blood pressure in a dose-dependent manner | blood pressure lowering (conscious dogs; normotensive conscious dogs, before furosemide, cumulative iv 0.3 to 3 mg/kg, n=4): did not lower blood pressure

CCCCc1nc(Cl)c(C(=O)O)n1Cc1ccc(-c2ccccc2-c2nn[nH]n2)cc1 [EXP-3174]
IC50 [1]: 11 nM | Antihypertensive Effects in Renal Hypertensive Rats, Intravenous Activity ([2]; Table 2, 3 mg/kg): + (Significant decrease in blood pressure at 3.0 mg/kg or less) | Antihypertensive Effects in Renal Hypertensive Rats, Oral Activity ([2]; Table 2, 30 mg/kg): + (Significant decrease in blood pressure at 30 mg/kg or less)

CCCCc1nc(Cl)c(CO)n1Cc1ccc(-c2ccccc2-c2nnn[nH]2)cc1 [Losartan, 2-n-butyl-4-chloro-5-hydroxymethyl-1-[(2'-(1H-tetrazol-5-yl)biphenyl-4-yl)methyl]imidazole]
baseline heart rate ([3]; before treatment 65±9, n.s.): 68±12 beats/min | baseline mean blood pressure ([3]; before treatment 132±10, p<0.05): 119±13 mmHg | fasting glucose ([4]; baseline 5.0±0.3, non-significant): 4.8 ± 0.1 mmol/L | fasting serum insulin ([4]; baseline 12±3, unchanged): 12±2 mU/l | fructosamine ([4]; baseline 227±18, non-significant): 217 ± 11 µmol/L | Antihypertensive Effects in Renal Hypertensive Rats, Intravenous Activity ([2]; Table 1, 10 mg/kg): + (Significant decrease in blood pressure at 10 mg/kg or less) | Antihypertensive Effects in Renal Hypertensive Rats, Oral Activity ([2]; Table 1, 100 mg/kg): + (Significant decrease in blood pressure at 100 mg/kg or less) | increase in glucose disposal rate ([5]; Losartan vs baseline, p<0.05): 27% | glucose disposal rate ([5]; after Losartan 50-100 mg oral once a day, average about 6 weeks, baseline 6.2±2.6, p<0.05): 7.9±2.6 mg/kg×min | average plasma insulin level during second clamp ([5]; insulin infused 1 mU/kg/min, end of Losartan monotherapy, first clamp 85±11): 80±7 mU/l | decrease in baseline plasma noradrenaline ([6]; Losartan vs before treatment, p<0.05): 40% | plasma adrenaline ([6]; after Losartan, before treatment 0.23±0.10, n.s.): 0.22 ± 0.11 nmol/L | baseline plasma noradrenaline ([6]; after Losartan, before treatment 1.87±0.53, p<0.05): 1.11 ± 0.13 nmol/L

CNCC(=O)N[C@@H](CCCN=C(N)N)C(=O)N[C@H](C(=O)N[C@@H](Cc1ccc(O)cc1)C(=O)N[C@H](C(=O)N[C@@H](Cc1cnc[nH]1)C(=O)N1CCC[C@H]1C(=O)N[C@@H](C)C(=O)O)C(C)C)C(C)C [Saralasin, [Sar^1, Ala^8] AII]
oral efficacy (arterial pressure; oral doses): oral doses being ineffective | duration of pharmacological effects (arterial pressure; parenteral administration): relatively short-lasting | effect on arterial pressure (arterial pressure; pressure dependent on circulating AII): lower arterial pressure in mammals and man | pressor effects (arterial pressure; pressure not sustained by AII): generally elicits pressor effects when the pressure is not sustained by AII | antagonism of the actions of AII ([7]; pithed rats): one of the most potent competitive antagonists of the actions of AII | agonistic actions ([7]; rat, in vivo): possesses agonistic actions of its own | inhibition of renal vasoconstrictor effect of indomethacin ([8]; dogs): inhibit the renal vasoconstrictor effect | inhibition of renal vasoconstrictor effect of meclofenamate ([8]; dogs): inhibit the renal vasoconstrictor effect

C[C@H](CS)C(=O)N1CCC[C@H]1C(=O)O [captopril]
reversal of renal vasoconstrictor effect of indomethacin ([8]; dogs with non-hypotensive hemorrhage): reverse the renal vasoconstrictor effect of indomethacin

NS(=O)(=O)c1cc(C(=O)O)c(NCc2ccco2)cc1Cl [furosemide]
Plasma renin activity (PRA) (Plasma renin activity): 19.9±7.2 ng AI/ml/hr

— patent US5962500A, “Insulin sensitivity with angiotensin II receptor blocking imidazoles” (priority 1994, dated 1999)
